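Growth conditions: 96-well plates. Treatment: test compound, 48 hours, 5 concentrations. Analysis: linear interpolation between bracketing concentrations; unreached endpoints set to highest concentration. Here, GI50 denotes the concentration required for 50% inhibition of growth. TGI is the concentration that stops growth completely.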
Columns and labels:
Assay in all cases: growth of human tumour cells (NCI), 48 h
786-0 renal = test system: 786-0 renal
A498 renal = test system: A498 renal
A549 NSCLC = test system: A549 NSCLC
ACHN renal = test system: ACHN renal
BT-549 breast = test system: BT-549 breast
CAKI-1 renal = test system: CAKI-1 renal
CCRF-CEM leukemia = test system: CCRF-CEM leukemia
COLO 205 colon = test system: COLO 205 colon
DU-145 prostate = test system: DU-145 prostate
EKVX NSCLC = test system: EKVX NSCLC
HCC-2998 colon = test system: HCC-2998 colon
HCT-116 colon = test system: HCT-116 colon
HCT-15 colon = test system: HCT-15 colon
HL-60(TB) leukemia = test system: HL-60(TB) leukemia
HOP-62 NSCLC = test system: HOP-62 NSCLC
HOP-92 NSCLC = test system: HOP-92 NSCLC
HS 578T breast = test system: HS 578T breast
HT29 colon = test system: HT29 colon
IGROV1 ovarian = test system: IGROV1 ovarian
K-562 leukemia = test system: K-562 leukemia
KM12 colon = test system: KM12 colon
LOX IMVI melanoma = test system: LOX IMVI melanoma
M14 melanoma = test system: M14 melanoma
MALME-3M melanoma = test system: MALME-3M melanoma
MCF7 breast = test system: MCF7 breast
MDA-MB-231 breast = test system: MDA-MB-231 breast
MDA-MB-435 = test system: MDA-MB-435
MOLT-4 leukemia = test system: MOLT-4 leukemia
NCI-H226 lung = test system: NCI-H226 lung

CCCCCCCCCCCC1=NC(C)(C)CN1CCO
GI50 (786-0 renal): 6.09 µM | TGI (786-0 renal): 19 µM | GI50 (A498 renal): 15.6 µM | TGI (A498 renal): 31.8 µM | GI50 (A549 NSCLC): 6.93 µM | TGI (A549 NSCLC): 21.9 µM | GI50 (ACHN renal): 9.05 µM | TGI (ACHN renal): 23.5 µM | GI50 (BT-549 breast): 13.6 µM | TGI (BT-549 breast): 34.3 µM | GI50 (CAKI-1 renal): 4.57 µM | TGI (CAKI-1 renal): 18.9 µM | GI50 (CCRF-CEM leukemia): 3.54 µM | TGI (CCRF-CEM leukemia): 18.4 µM | GI50 (COLO 205 colon): 1.85 µM | TGI (COLO 205 colon): 3.45 µM | GI50 (DU-145 prostate): 10.2 µM | TGI (DU-145 prostate): 21.9 µM | GI50 (EKVX NSCLC): 10.7 µM | TGI (EKVX NSCLC): 29.5 µM | GI50 (HCC-2998 colon): 1.87 µM | TGI (HCC-2998 colon): 3.63 µM | GI50 (HCT-116 colon): 1.94 µM | TGI (HCT-116 colon): 3.76 µM | GI50 (HCT-15 colon): 1.98 µM | TGI (HCT-15 colon): 4.42 µM | GI50 (HL-60(TB) leukemia): 3.3 µM | TGI (HL-60(TB) leukemia): 13.7 µM | GI50 (HOP-62 NSCLC): 4.6 µM | TGI (HOP-62 NSCLC): 16.2 µM | GI50 (HOP-92 NSCLC): 1.29 µM | TGI (HOP-92 NSCLC): 8.11 µM | GI50 (HS 578T breast): 7.51 µM | TGI (HS 578T breast): 25.6 µM | GI50 (HT29 colon): 2.12 µM | TGI (HT29 colon): 5.05 µM | GI50 (IGROV1 ovarian): 2.57 µM | TGI (IGROV1 ovarian): 6.67 µM | GI50 (K-562 leukemia): 2.44 µM | TGI (K-562 leukemia): 5.57 µM | GI50 (KM12 colon): 2.85 µM | TGI (KM12 colon): 7.57 µM | GI50 (LOX IMVI melanoma): 1.97 µM | TGI (LOX IMVI melanoma): 4.65 µM | GI50 (M14 melanoma): 1.92 µM | TGI (M14 melanoma): 3.74 µM | GI50 (MALME-3M melanoma): 10.2 µM | TGI (MALME-3M melanoma): 29 µM | GI50 (MCF7 breast): 2.41 µM | TGI (MCF7 breast): 6.09 µM | GI50 (MDA-MB-231 breast): 3.78 µM | TGI (MDA-MB-231 breast): 15.2 µM | GI50 (MDA-MB-435): 2.51 µM | TGI (MDA-MB-435): 6.98 µM | GI50 (MOLT-4 leukemia): 3.23 µM | TGI (MOLT-4 leukemia): 9.94 µM | GI50 (NCI-H226 lung): 15.4 µM | TGI (NCI-H226 lung): 36.2 µM
